Data from patent US10322111B2, “Chemokine receptor binding heterocyclic compounds with enhanced efficacy” (Genzyme Corporation, priority 2001, dated 2019).
Read-outs that look alike come from different tables or passages of the source.

Legend:
[1] = system: CFU-GM, BFU-E and CFU-GEMM progenitor cells; conditions: for Cycling Status of Progenitors, CFU-GM, AGAR Culture / Cycling Status of Progenitors, BFU-E / Cycling Status of Progenitors, CFU-GEMM / Cycling Status of Progenitors, CFU-GM: 80 μg/kg s.c.
[2] = system: granulocyte macrophage (CFU-GM), erythroid (BFU-E), and multipotential (CFU-GEMM) progenitor cells; conditions: mice; for Fold Change Compared to Time 0, Progenitors, BFU-E / Fold Change Compared to Time 0, Progenitors, CFU-GEMM / Fold Change Compared to Time 0, Progenitors, GM / Absolute Progenitors Per ML Blood, BFU-E / Absolute Progenitors Per ML Blood, CFU-GEMM / Absolute Progenitors Per ML Blood, CFU-GM: methylcellulose culture; for Absolute Number Progenitors Per ML Blood, BFU-E / Absolute Number Progenitors Per ML Blood, CFU-GEMM / Absolute Number Progenitors Per ML Blood, CFU-GM: 1 hour post administration; for Absolute Progenitors Per ML Blood, BFU-E / Absolute Progenitors Per ML Blood, CFU-GEMM / Absolute Progenitors Per ML Blood, CFU-GM: single s.c. 5 mg/Kg

c1cc(CN2CCCNCCNCCCNCC2)ccc1CN1CCCNCCNCCCNCC1 [AMD3100, 1,1′-[1,4-phenylene-bis(methylene)]-bis-1,4,8,11-tetraazacyclotetradecane]
Cycling Status of Progenitors, CFU-GM, AGAR Culture ([1]; P5, T = 1 h after injection): 3%
Cycling Status of Progenitors, BFU-E ([1]; P5, T = 3 h after injection): 3%
Cycling Status of Progenitors, CFU-GEMM ([1]; P5, T = 3 h after injection): 0%
Cycling Status of Progenitors, CFU-GM ([1]; P5, T = 3 h after injection): 5%
Cycling Status of Progenitors, CFU-GM, AGAR Culture ([1]; P5, T = 3 h after injection): 0%
Cycling Status of Progenitors, BFU-E ([1]; P5, T = 6 h after injection): 1%
Cycling Status of Progenitors, CFU-GEMM ([1]; P5, T = 6 h after injection): 0%
Cycling Status of Progenitors, CFU-GM ([1]; P5, T = 6 h after injection): 0%
Cycling Status of Progenitors, CFU-GM, AGAR Culture ([1]; P5, T = 6 h after injection): 1%
Cycling Status of Progenitors, BFU-E ([1]; P5, T = 9 h after injection): 0%
Cycling Status of Progenitors, CFU-GEMM ([1]; P5, T = 9 h after injection): 0%
Cycling Status of Progenitors, CFU-GM ([1]; P5, T = 9 h after injection): 0%
Cycling Status of Progenitors, CFU-GM, AGAR Culture ([1]; P5, T = 9 h after injection): 0%
Cycling Status of Progenitors, BFU-E ([1]; P5, T = 24 h after injection): 0%
Cycling Status of Progenitors, CFU-GEMM ([1]; P5, T = 24 h after injection): 0%
Cycling Status of Progenitors, CFU-GM ([1]; P5, T = 24 h after injection): 0%
Cycling Status of Progenitors, CFU-GM, AGAR Culture ([1]; P5, T = 24 h after injection): 0%
cycling state of progenitors ([1]; human donors, prior to and 1, 3, 6, 9 and 24 hours after injection): slow or non-cycling state
Fold Change Compared to Time 0, Progenitors, BFU-E ([2]; Time 2′): 2.07 fold
Fold Change Compared to Time 0, Progenitors, CFU-GEMM ([2]; Time 2′): 1.85 fold
Fold Change Compared to Time 0, Progenitors, GM ([2]; Time 2′): 2.86 fold
Fold Change Compared to Time 0, Progenitors, BFU-E ([2]; Time 15″): 2.72 fold
Fold Change Compared to Time 0, Progenitors, CFU-GEMM ([2]; Time 15″): 3.51 fold
Fold Change Compared to Time 0, Progenitors, GM ([2]; Time 15″): 2.73 fold
Fold Change Compared to Time 0, Progenitors, BFU-E ([2]; Time 30″): 4.24 fold
Fold Change Compared to Time 0, Progenitors, CFU-GEMM ([2]; Time 30″): 4.41 fold
Fold Change Compared to Time 0, Progenitors, GM ([2]; Time 30″): 6.23 fold
Absolute Number Progenitors Per ML Blood, BFU-E ([2]; single s.c. 1 mg/kg): 62 Per ML Blood
Absolute Number Progenitors Per ML Blood, CFU-GEMM ([2]; single s.c. 1 mg/kg): 27.1 Per ML Blood
Absolute Number Progenitors Per ML Blood, CFU-GM ([2]; single s.c. 1 mg/kg): 424 Per ML Blood
Absolute Number Progenitors Per ML Blood, BFU-E ([2]; single s.c. 2.5 mg/kg): 98.9 Per ML Blood
Absolute Number Progenitors Per ML Blood, CFU-GEMM ([2]; single s.c. 2.5 mg/kg): 70.6 Per ML Blood
Absolute Number Progenitors Per ML Blood, CFU-GM ([2]; single s.c. 2.5 mg/kg): 687.6 Per ML Blood
Absolute Progenitors Per ML Blood, BFU-E ([2]; 15″): 134.5 Per ML Blood
Absolute Progenitors Per ML Blood, CFU-GEMM ([2]; 15″): 90.4 Per ML Blood
Absolute Progenitors Per ML Blood, CFU-GM ([2]; 15″): 791.6 Per ML Blood
Absolute Progenitors Per ML Blood, BFU-E ([2]; 30″): 209.3 Per ML Blood
Absolute Progenitors Per ML Blood, CFU-GEMM ([2]; 30″): 113.5 Per ML Blood
Absolute Progenitors Per ML Blood, CFU-GM ([2]; 30″): 1805.5 Per ML Blood
Absolute Progenitors Per ML Blood, BFU-E ([2]; 120″): 102.3 Per ML Blood
Absolute Progenitors Per ML Blood, CFU-GEMM ([2]; 120″): 47.6 Per ML Blood
Absolute Progenitors Per ML Blood, CFU-GM ([2]; 120″): 828.7 Per ML Blood
Absolute Number Progenitors Per ML Blood, BFU-E ([2]; single s.c. 5 mg/kg): 92.8 Per ML Blood
Absolute Number Progenitors Per ML Blood, CFU-GEMM ([2]; single s.c. 5 mg/kg): 69.5 Per ML Blood
Absolute Number Progenitors Per ML Blood, CFU-GM ([2]; single s.c. 5 mg/kg): 608.4 Per ML Blood
Absolute Number Progenitors Per ML Blood, BFU-E ([2]; single s.c. 10 mg/kg): 120.5 Per ML Blood
Absolute Number Progenitors Per ML Blood, CFU-GEMM ([2]; single s.c. 10 mg/kg): 79.8 Per ML Blood
Absolute Number Progenitors Per ML Blood, CFU-GM ([2]; single s.c. 10 mg/kg): 825.6 Per ML Blood
time post-administration at which elevation of the white blood cell count maximized (white blood cells; human volunteers, 80 μg/kg s.c.): 6 h
white blood cells (white blood cells; volunteer P1, 1 Hr after 80 μg/kg s.c.): 14.8 ×10^3 WBC's
white blood cells (white blood cells; volunteer P1, 2 Hr after 80 μg/kg s.c.): 21.4 ×10^3 WBC's
white blood cells (white blood cells; volunteer P1, 4 Hr after 80 μg/kg s.c.): 23.2 ×10^3 WBC's
white blood cells (white blood cells; volunteer P1, 6 Hr after 80 μg/kg s.c.): 26.2 ×10^3 WBC's
white blood cells (white blood cells; volunteer P1, 9 Hr after 80 μg/kg s.c.): 22.3 ×10^3 WBC's
white blood cells (white blood cells; volunteer P1, 30 Min after 80 μg/kg s.c.): 8.02 ×10^3 WBC's
white blood cells (white blood cells; volunteer P1, Day 2 after 80 μg/kg s.c.): 7.07 ×10^3 WBC's
white blood cells (white blood cells; volunteer P2, 1 Hr after 80 μg/kg s.c.): 8.93 ×10^3 WBC's
white blood cells (white blood cells; volunteer P2, 2 Hr after 80 μg/kg s.c.): 13.5 ×10^3 WBC's
white blood cells (white blood cells; volunteer P2, 4 Hr after 80 μg/kg s.c.): 18.00 ×10^3 WBC's
white blood cells (white blood cells; volunteer P2, 6 Hr after 80 μg/kg s.c.): 19.2 ×10^3 WBC's
white blood cells (white blood cells; volunteer P2, 9 Hr after 80 μg/kg s.c.): 19.6 ×10^3 WBC's
white blood cells (white blood cells; volunteer P2, 30 Min after 80 μg/kg s.c.): 6.53 ×10^3 WBC's
white blood cells (white blood cells; volunteer P2, Day 2 after 80 μg/kg s.c.): 8.03 ×10^3 WBC's
white blood cells (white blood cells; volunteer P3, 1 Hr after 80 μg/kg s.c.): 9.28 ×10^3 WBC's
white blood cells (white blood cells; volunteer P3, 4 Hr after 80 μg/kg s.c.): 18.10 ×10^3 WBC's
white blood cells (white blood cells; volunteer P3, 6 Hr after 80 μg/kg s.c.): 17.9 ×10^3 WBC's
white blood cells (white blood cells; volunteer P3, 9 Hr after 80 μg/kg s.c.): 18.4 ×10^3 WBC's
white blood cells (white blood cells; volunteer P3, 30 Min after 80 μg/kg s.c.): 7.14 ×10^3 WBC's
white blood cells (white blood cells; volunteer P3, Day 2 after 80 μg/kg s.c.): 4.98 ×10^3 WBC's
white blood cells (white blood cells; volunteer P4, 1 Hr after 80 μg/kg s.c.): 7.38 ×10^3 WBC's
white blood cells (white blood cells; volunteer P4, 2 Hr after 80 μg/kg s.c.): 12.4 ×10^3 WBC's
white blood cells (white blood cells; volunteer P4, 4 Hr after 80 μg/kg s.c.): 14.6 ×10^3 WBC's
white blood cells (white blood cells; volunteer P4, 6 Hr after 80 μg/kg s.c.): 15.8 ×10^3 WBC's
white blood cells (white blood cells; volunteer P4, 9 Hr after 80 μg/kg s.c.): 13.9 ×10^3 WBC's
white blood cells (white blood cells; volunteer P4, 30 Min after 80 μg/kg s.c.): 4.37 ×10^3 WBC's
white blood cells (white blood cells; volunteer P4, Day 2 after 80 μg/kg s.c.): 4.98 ×10^3 WBC's
white blood cells (white blood cells; volunteer P5, 1 Hr after 80 μg/kg s.c.): 8.43 ×10^3 WBC's
white blood cells (white blood cells; volunteer P5, 4 Hr after 80 μg/kg s.c.): 16.90 ×10^3 WBC's
white blood cells (white blood cells; volunteer P5, 6 Hr after 80 μg/kg s.c.): 19.3 ×10^3 WBC's
white blood cells (white blood cells; volunteer P5, 9 Hr after 80 μg/kg s.c.): 19.00 ×10^3 WBC's
white blood cells (white blood cells; volunteer P5, 30 Min after 80 μg/kg s.c.): 6.08 ×10^3 WBC's
white blood cells (white blood cells; volunteer P5, Day 2 after 80 μg/kg s.c.): 4.57 ×10^3 WBC's
